What was measured:
[1] = system: Caco-2 cell membrane fluidity; experiment: DPH fluorescence anisotropy (membrane fluidity) in Caco-2 cells; type: cell-based; conditions: Caco-2, vs untreated control
Protocol: Furthermore, the active ingredients and the products were investigated at sub-cytotoxic concentrations to rule out any impact of the active ingredients. Briefly, Caco-2 cells were cultivated in six-well plates for 21 days and detached on day 21 using 1 mL Accutase Cell Detachment Solution (ACC-1B, Capricorn Scientific GmbH, Ebsdorfergrund, Germany) per well. After incubation for 20-30 min at room temperature, detached cells were separated by centrifugation. […] Fluorescence anisotropy measurements were performed at 37 °C using a dual monochromator fluorescence spectrometer (model LS 55, PerkinElmer, Rodgau, Germany) fitted with polarizing filters and a stirred cell. Samples were excited with 355 nm vertical polarised light and emission was measured at 430 nm in vertical and horizontal direction. Since fluorescence anisotropy is inversely related to membrane fluidity, decreased DPH fluorescence anisotropy implies an increased membrane fluidity. Three independent experiments were performed (n = 3). The fluorescence anisotropy (r) is defined by following equation: […]: fluorescence intensity measured in direction parallel to the polarised exciting light.IVH: fluorescence intensity measured in direction perpendicular to the polarised exciting light.G: IVH/IHH; correction factor for the instrument.

[2] = system: Caco-2 cells; experiment: WST-1 cytotoxicity assay in Caco-2 cells, 24 h exposure; type: cell-based; conditions: WST-1, Caco-2, 24 h; tested range ≤ 960 mg/L
Protocol: Caco-2 cells (ECACC: 86010202) were purchased from the European Collection of Authenticated Cell Cultures (Salisbury, UK). […] The cells were cultivated at 37 °C, 5% CO2 and […] atmosphere in a cell culture incubator. They were passaged when reaching 80–90% confluence every 2 to 3 days. Passaging was performed at maximum ten times and by aspirating the medium, washing with phosphate-buffered saline (PBS) and incubating with trypsin–EDTA (0.05%) in Dulbecco’s phosphate-buffered saline (Capricorn Scientific GmbH, Ebsdorfergrund, Germany) at 37 °C for 3–5 min.
Cytotoxicity was first analysed by water soluble tetrazolium assay (WST-1; Roche, Berlin, Germany), followed by neutral red uptake (NRU) assay. Caco-2 cells were seeded in 96-well plates at a density of 5000 cells per well and differentiated for three weeks. The cells were incubated with both active substances and all of the above-mentioned co-formulants individually, with a combination of the active substances and the respective surfactants in a ratio in accordance with the products, as well as with the respective products, containing all co-formulants, for 24 h. Eight different concentrations were investigated in culture medium with a final concentration of 0.4% DMSO. Triton X-100 (0.1%) served as a positive control. After 24 h incubation a WST-1 assay was performed according to the protocol provided by the supplier.

[3] = biological target: recombinant human Pgp (Homo sapiens, UniProt P08183); experiment: Pgp ATPase assay (Pgp-Glo assay system)
Chain of recombinant human Pgp (P08183 whole entry): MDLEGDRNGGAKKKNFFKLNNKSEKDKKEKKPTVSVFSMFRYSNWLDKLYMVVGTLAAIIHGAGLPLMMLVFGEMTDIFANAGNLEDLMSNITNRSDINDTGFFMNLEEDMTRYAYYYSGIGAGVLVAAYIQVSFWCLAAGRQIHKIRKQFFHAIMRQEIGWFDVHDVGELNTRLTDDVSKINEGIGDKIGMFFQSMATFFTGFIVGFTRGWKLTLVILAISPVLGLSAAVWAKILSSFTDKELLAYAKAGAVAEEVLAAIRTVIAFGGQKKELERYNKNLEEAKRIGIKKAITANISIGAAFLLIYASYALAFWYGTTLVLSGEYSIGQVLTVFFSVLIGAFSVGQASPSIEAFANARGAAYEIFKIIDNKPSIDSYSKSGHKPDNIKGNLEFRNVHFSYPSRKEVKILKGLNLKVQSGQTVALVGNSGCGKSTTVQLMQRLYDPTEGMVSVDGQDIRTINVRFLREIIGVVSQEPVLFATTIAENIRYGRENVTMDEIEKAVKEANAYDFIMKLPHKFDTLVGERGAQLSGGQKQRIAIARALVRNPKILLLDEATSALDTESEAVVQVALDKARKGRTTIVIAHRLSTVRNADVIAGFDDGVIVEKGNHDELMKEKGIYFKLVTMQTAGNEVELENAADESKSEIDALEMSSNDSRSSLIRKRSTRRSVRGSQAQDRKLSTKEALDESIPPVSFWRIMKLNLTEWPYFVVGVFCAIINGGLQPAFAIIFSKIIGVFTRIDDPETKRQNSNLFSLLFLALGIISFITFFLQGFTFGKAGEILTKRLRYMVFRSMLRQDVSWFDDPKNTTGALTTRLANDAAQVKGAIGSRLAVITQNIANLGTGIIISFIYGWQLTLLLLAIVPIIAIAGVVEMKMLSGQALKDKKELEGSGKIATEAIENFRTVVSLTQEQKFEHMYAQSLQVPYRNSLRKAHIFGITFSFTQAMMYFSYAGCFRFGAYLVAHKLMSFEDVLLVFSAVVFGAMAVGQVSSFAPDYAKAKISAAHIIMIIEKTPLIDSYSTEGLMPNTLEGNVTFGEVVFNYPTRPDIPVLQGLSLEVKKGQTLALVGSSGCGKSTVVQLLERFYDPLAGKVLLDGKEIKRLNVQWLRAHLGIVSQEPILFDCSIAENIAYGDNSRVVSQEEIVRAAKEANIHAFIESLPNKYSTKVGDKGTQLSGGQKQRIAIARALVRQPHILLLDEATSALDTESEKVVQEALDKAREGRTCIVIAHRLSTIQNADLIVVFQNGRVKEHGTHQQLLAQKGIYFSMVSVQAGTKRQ
Protocol: This study focused on potential effects on Pgp transporters.
Pgp ATPase activity modulation was determined using the Pgp-Glo assay system (Promega, Madison, WI, USA) following the manufacturer's user protocol. Briefly, 25 µg of recombinant human Pgp membrane in Pgp-Glo assay buffer was incubated with different concentrations of each active substance or co-formulant in combination with 200 µM verapamil at 37 °C for 5 min. […] 5 mM MgATP was added to each well and 96-well plates were incubated at 37 °C for 40 min to initiate the reaction. Luminescence of the remaining, unmetabolised ATP was initiated by adding 50 µl of 25 mM ATP detection reagent. After briefly shaking on a plate shaker, 96-well plates were incubated at room temperature for 20 min. The luciferase generated luminescence signal was measured on an Infinite M200 PRO plate reader (Tecan, Maennedorf, Swiss). All measurements were corrected by subtraction of Na3VO4-treated signals (non Pgp ATPase activity) and represented as changes in luminescence signals (ΔRLU). […] Changes in luminescence (ΔRLU) caused by the co-formulants and abamectin incubated with verapamil were compared to ΔRLU caused by verapamil. ΔRLU values of the active ingredients (without verapamil) were compared to ΔRLU values of untreated samples (basal ΔRLU). Each condition was measured in four replicates (n = 4).

Compound	impact on the fluorescence anisotropy ([1]; 64 mg/L)	cytotoxic effects over the tested concentration range [2]	impact on the fluorescence anisotropy ([1]; 10 mg/L)	stimulation of Pgp ATPase activity compared to the untreated control ([3]; 1.25 mg/L (lowest concentration), without verapamil)	maximum decreased ΔRLU value compared to the verapamil control ([3]; verapamil-stimulated (200 µM) Pgp ATPase activity, 2.5–64 mg/L, concentration-dependent inhibition)
CCCCCCC(C)OC(=O)COc1nc(F)c(Cl)c(N)c1Cl (centres unmarked) [fluroxypyr-meptyl]	did not show a statistically significant impact	did not show significant cytotoxic effects	–	–	–
abamectin	–	–	did not show a statistically significant impact	approximately 250%	30%
